{
  "source": "patent US20190008154A1",
  "about": "(priority 2015, published 2019)",
  "tested_on": "P[…] (PYRIOR)",
  "set-up": "species or system Pyricularia oryzae",
  "details": "in vivo",
  "note": "Values joined by “and” are separate entries in the source; they are usually repeats but may differ in a detail not shown here. Equal values may be shown once.",
  "data": [
    {"smiles": "Cc1cccc2sc3nncn3c12", "note": "[TCA, 5-methyl-1,2,4-triazolo[3,4-b][1,3]benzothiazole]", "values": [
      {"measurement": "PYRIOR (% DC) Observed", "value": "100% and 95% and 50.2%"}
    ]}
  ]
}
